From patent US11033029B2, “Pyrazole amide compound and use thereof” (Shenyang Sinochem Agrochemicals R&D Co., Ltd., priority 2013, dated 2021)

Assays:
[1] = tested on: cucumber downy mildew (Pseudoperonospora cubensis (Berk.et Curt.) Rostov); experiment: Protective effect against cucumber downy mildew on potted plants; format: in vivo; details: 400 ppm, protectant activity, parallel test
Method: (§1) Fungicidal activity of the compounds in the present invention against many kinds diseases were carried out. The procedure of fungicidal activity determination is as follows:
(§2) The fungicidal activity was tested in vivo manner on the potted plants. The test compounds of the present invention were dissolved in proper solvent (choosing the solvent according their dissolving ability to the compounds, the solvents could be acetone, methanol or N,N-dimethylformide, etc. The volume ratio between solvent and liquid sprayed was equal to or less than 0.05) and dilute with water contain 0.1% Tween 80 to given concentrations. Compounds of present invention was sprayed onto the leaves of seedling according to the designed concentration. Meanwhile, water was set as the blank control, three replicates were set for each treatment, the spore suspension were inoculated on the second day after treatment, then the plants were placed in an artificial climate chamber (temperature: day 25° C., night 20° C., relative humidity 95 to 100%). 24 hours later, the plants were moved to green house to cultivated. The plants which not need to control humidity was inoculated spore suspension in green house and cultivated in green house directly. The results were investigated after the plants were fully infected relative to the blank control (usually one week). The test results grading 100-0 refers to the <A Manual of Assessment Keys for Plant Diseases> which edited by American Phytopathological Society. “100” refer to no infection and “0” refer to the most serious infection
Protective effect against cucumber downy mildew (Pseudoperonospora cubensis (Berk.et Curt.) Rostov)
According the test method described above, parallel test were carried out between compounds 2 and 11 of present invention and the known compounds KC1, KC2, KC3 and KC4 (they are the compounds 7g, 7f and 7a in Chinese Journal of Pesticide Science, 2011, 13(6): 576-580 and compound of 11 in CN1646494A, respectively).

[2] = tested on: corn rust (Puccinia sorghi Schw); experiment: Protective effect against corn rust on potted plants; format: in vivo; details: protectant activity, parallel test
Method: as §1, §2
Protective effect against corn rust (Puccinia sorghi Schw):
According the test method described above, parallel test were carried out between compounds 1, 3, 7, 9, 11 and 21 of present invention and the known compounds KC1, KC2, KC3 and KC4.

| SMILES | Control effect against cucumber downy mildew (%) [1] | pest or weed control at 6.25 ppm [2] | pest or weed control at 25 ppm [2] |
| --- | --- | --- | --- |
| Cc1ccccc1NC(=O)c1cn(C)nc1C(F)F [KC2] | 0% | 0% | 0% |
| Cn1cc(C(=O)Nc2ccccc2)c(C(F)F)n1 [KC1] | 0% | 0% | 60% |
| Cc1c(F)cccc1NC(=O)c1cn(C)nc1C(F)F [KC3] | 0% | 20% | 30% |
| Cn1cc(C(=O)Nc2ccc(F)cc2-c2ccc(Cl)c(Cl)c2)c(C(F)F)n1 [KC4, bixafen] | 0% | 0% | 50% |
| C=C(C)Cc1c(NC(=O)c2cn(C)nc2C(F)F)cccc1OC(C)C [Compound 21] | – | 90% | 100% |
| CC(C)Oc1cccc(NC(=O)c2cn(C)nc2C(F)F)c1 [Compound 1] | – | 100% | 100% |
| CCCC(C)Oc1cccc(NC(=O)c2cn(C)nc2C(F)F)c1 (stereo not drawn) [Compound 3] | – | 95% | 100% |
| CCC(CC)Oc1cccc(NC(=O)c2cn(C)nc2C(F)F)c1C [Compound 11] | 90% | 90% | 100% |
